What was measured:
[1] = system: neutrophils; assay: Neutrophil recovery in 5-FU treated mice; assay type: in vivo, mouse; details: day 8 post 5FU, 0 dose 144 ± 36
[2] = system: IL-6; assay: Serum IL-6 production in mice after single s.c. injection (7TD1 bioassay); assay type: in vivo, mouse; details: serum 4 h post injection
Method: Description of Biological Assays Interleukin 6(IL-6) assay for structure function analysis--Test compounds are dissolved in water and administered subcutaneously in 0.2 ml to deliver a dose of 0.1-10 mg/kg. The less soluble compounds are first dissolved in 100% ethanol and then brought to the appropriate concentration in water. Four hours post injection, the mice are bled and the serum is retrieved. The IL-6 dependent cell line 7TDl is used to assay serial dilutions of sera for IL-6 content. 7TDl cells (1×10^4) are placed in microtiter wells and incubated at 37° C. for 72 hours with standard recombinant mouse IL-6 or with dilutions of serum to be tested. Over the last 6 hours, the cells are pulsed with ^3 H-Tdr (μci). Cells are then harvested and the degree of proliferation determined by the uptake of ^3 H-Tdr as measured by liquid scintillation spectrometry. The concentration of IL-6 in serum is calculated from standard curves utilizing recombinant IL-6 from R&D Systems Inc. and are reported in units of IL-6 activity as defined by the manufacturer.

[3] = system: CSF; assay: Serum colony stimulating factor (CSF) assay in mice; assay type: in vivo, mouse; details: serum 4 hours after injection
Method: Colony forming assays Granulocyte-Macrophage (CFU-GM)--Mice are treated with 150 mg/kg of 5-Fu and treatment with test compound begins 24 hrs. later. On consecutive days, mice are killed by cervical dislocation and the femurs removed under sterile conditions. Femurs are flushed with 1 ml of ice cold medium (Iscove's supplemented with 20% FCS, 1% penicillin-streptomycin, 1% glutamine and 5×10^-5 M 2-mercaptoethanol). Bone marrow cells (5×10^5) are then plated in 12×75 mm tissue culture plates in 3 ml of warm ararose (3%) in Iscove's medium with 100 Units/ml of recombinant mouse GM-CSF purchased from Genzyme (Boston, Mass.). Plates are incubated for 7 days at 37° C. in 5% CO2. After 7 days, colonies of 50 cells or greater are enumerated under a dissecting microscope.
Bone marrow cells are prepared as described above for the CFU-GM assay. The cells are then incubated in soft agar with an 0.3% final concentration of serum taken from mice 4 hours after injection with test compounds. After 7 days of incubation at 37° C., the number of colony forming (CFU) cells per 10^5 plated bone marrow cells is determined by counting colonies of more than 50 cells under a dissecting microscope. The data are reported as CFU/10^5 bone marrow cells.

[4] = system: neutrophils; assay: Neutrophil recovery in 5-FU treated mice; assay type: in vivo, mouse; details: mouse, in vivo
Method: (§1) Circulating Neutrophil Assay--Mice are treated with 5-FU (150 mg/kg) and beginning 24 hrs. later, treated daily with the test compound. Mice are bled daily by retroorbital puncture in heparinized capillary tubes. Circulating WBC counts are determined by Coulter counter. Blood smears are stained with Wright-Geimsa solution and the percentage circulating neutrophils determined by differential counting under a microscope.
(§2) 5-Fluorouracil (5-FU) Induced Neutropenia In Mice--Mice are treated ip with 150 mg/kg of the chemotherapy agent 5-FU which induces a severe loss of neutrophils in the peripheral blood 5-6 days later. Twenty-four hrs. after the dose, treatment with the test compounds is initiated. The effect of the test compounds on recovery of neutrophil progenitor cells in the bone marrow is determined by the CFU-GM assay. The recovery of circulating neutrophils is followed by differential staining of the peripheral blood.
*Data from 10 mice/group on day 7 post treatment with 150 mg/kg of 5FU.
Beginning 24 hrs. after 5FU dose, mice were treated daily with test
compound at concentrations indicated. Neutrophil count for normal mice (n
**Mice treated with 5FU and vehicle only.

[5] = system: neutrophils; assay: Neutrophil recovery in cytoxan treated primates; assay type: in vivo, cynomolgous monkeys; details: for Absolute Neutrophil Count/cu. mm. of Blood: Cytoxan + Ex. 32 (50 μg/kg daily s.c.)
Method: Groups of 4 cynomolgous monkeys are treated on day 1 and day 0 with
cytoxan at 60 mg/kg. Beginning 24 hours after the second cytoxan dose, on
group is treated daily s.c. with 50 μg/kg of test compound and the
other with vehicle (water) only.
*p < 0.05 versus cytoxan only control by Student's t test.

[6] = system: neutrophils; assay: Oral dosing: neutrophil recovery in 5-FU treated mice; assay type: in vivo, mouse; details: for Neutrophils/cu. mm.: day 7 post 5FU, 0 dose 67 ± 22
Method: as §1, §2
Groups of 5 mice are treated with 150 mg/kg of 5-FU. One day later, daily oral dosing with test compounds begins and continues for 10 days. […]

[7] = system: CSF; details: literature; cited from earlier work
[8] = system: bone marrow; details: myelosuppression caused by chemotherapy or radiation; literature; cited from earlier work
[9] = system: bone marrow progenitor cells; assay: Delta assay: expansion of bone marrow progenitor cells in vitro, with c-kit ligand (KL); assay type: cell-based, mouse; details: KL alone, 7 day in vitro incubation; medium alone 0
Method: Delta Assay--Mice are treated with a single dose of 5-FU (150 mg/kg ip). Twenty-four hours later, bone marrow cells are removed and split into 2 aliquots. […] After 14 days, the number of colonies is determined (CFU-1). A second aliquot of cells is placed in liquid culture with single growth factors or drugs or combinations of each to assess the ability of these agents to expand the colony forming cell pool. After 7 days in liquid culture, these cells are harvested and plated in soft agar with IL-1 and GM-CSF as with the first aliquot. After 14 days the number of colonies in the second aliquot is determined (CFU-2). The ratio or delta is calculated as CFU-2/CFU-1 and this ratio is used to ascertain the ability of the growth factors and/or drugs used in the liquid phase to induce growth of the colony forming cells (CFU) or differentiation of pre-CFU to CFU.
Bone marrow cells from 5-FU treated mice are used to enrich for early progenitor cells. The cells are split into 2 aliquots as described in the methods section for the "delta assay." The fold increase is determined by measuring the effect of a 7 day in vitro incubation of the cells with tissue culture medium plus test compound and/or growth factor KL on colony forming dells (CFU). The number of CFUs are then compared with colony formation of the fresh bone marrow cells that were not incubated in vitro to determine the fold increase. Test compound is used in vitro at 0.5 μg/ml.

CCCCCCC(=O)N[C@H](COC(=O)N[C@@H](CCC[C@@H](N)C(=O)O)C(=O)N[C@H](C)C(=O)O)C(=O)O [Example 32, (R)-N-[(R)-6-carboxy-N^2-[[2-carboxy-2-[(1-oxoheptyl)amino]ethoxy]carbonyl]-L-lysyl]-D-Alanine]
Neutrophils/cu. mm. ([1]; 100 μg/kg daily): 982 ± 150 /cu. mm.
Neutrophils/cu. mm. ([1]; 1000 μg/kg daily): 1892 ± 293 /cu. mm.
IL-6 ([2]; 0.1 mg/kg s.c.): 1340 ± 134 U/ml
IL-6 ([2]; 1.0 mg/kg s.c.): 1797 ± 284 U/ml
CSF production, CFU/100,000 Bone Marrow Cells ([3]; 0.1 mg/kg): 154 ± 5 CFU/100,000 Bone Marrow Cells
CSF production, CFU/100,000 Bone Marrow Cells ([3]; 1.0 mg/kg): 137 ± 15 CFU/100,000 Bone Marrow Cells
neutrophil recovery in 5-FU treated mice (in words) [4]: induce neutrophil recovery in 5-FU treated mice
Absolute Neutrophil Count/cu. mm. of Blood ([5]; day 0 after cytoxan, cytoxan only 3640 ± 1058): 3554 ± 1194 /cu. mm. of Blood
Absolute Neutrophil Count/cu. mm. of Blood ([5]; day 1 after cytoxan, cytoxan only 4900 ± 971): 7849 ± 1592 /cu. mm. of Blood
Absolute Neutrophil Count/cu. mm. of Blood ([5]; day 2 after cytoxan, cytoxan only 2689 ± 156): 4679 ± 867 /cu. mm. of Blood
Absolute Neutrophil Count/cu. mm. of Blood ([5]; day 3 after cytoxan, cytoxan only 1935 ± 126): 1080 ± 264 /cu. mm. of Blood
Absolute Neutrophil Count/cu. mm. of Blood ([5]; day 4 after cytoxan, cytoxan only 1442 ± 344): 370 ± 171 /cu. mm. of Blood
Absolute Neutrophil Count/cu. mm. of Blood ([5]; day 5 after cytoxan, cytoxan only 856 ± 295): 455 ± 208 /cu. mm. of Blood
Absolute Neutrophil Count/cu. mm. of Blood ([5]; day 6 after cytoxan, cytoxan only 1009 ± 292): 518 ± 218 /cu. mm. of Blood
Absolute Neutrophil Count/cu. mm. of Blood ([5]; day 7 after cytoxan, cytoxan only 852 ± 301): 1304 ± 1046 /cu. mm. of Blood
Absolute Neutrophil Count/cu. mm. of Blood ([5]; day 8 after cytoxan, cytoxan only 542 ± 233): 1596 ± 1000 /cu. mm. of Blood
Absolute Neutrophil Count/cu. mm. of Blood ([5]; day 9 after cytoxan, *p < 0.05 versus cytoxan only 441 ± 194): 2041 ± 423 /cu. mm. of Blood
Absolute Neutrophil Count/cu. mm. of Blood ([5]; day 10 after cytoxan, cytoxan only 1244 ± 509): 3506 ± 1130 /cu. mm. of Blood
Absolute Neutrophil Count/cu. mm. of Blood ([5]; day 11 after cytoxan, cytoxan only 2053 ± 1002): 4576 ± 673 /cu. mm. of Blood
Absolute Neutrophil Count/cu. mm. of Blood ([5]; day 12 after cytoxan, cytoxan only 1885 ± 678): 3761 ± 1394 /cu. mm. of Blood
Absolute Neutrophil Count/cu. mm. of Blood ([5]; day 13 after cytoxan, cytoxan only 3502 ± 2297): 3751 ± 1278 /cu. mm. of Blood
Absolute Neutrophil Count/cu. mm. of Blood ([5]; day 14 after cytoxan, cytoxan only 3816 ± 1674): 3106 ± 520 /cu. mm. of Blood
recovery of neutrophils in cytoxan treated primates (in words) ([5]; monkey, in vivo): accelerates the recovery of neutrophils
recovery to control levels ([5]; versus a day 10 recovery for the cytoxan only group): ≤ 7 days
Neutrophils/cu. mm. ([6]; 1 mg/kg daily oral): 547 ± 232 /cu. mm
Neutrophils/cu. mm. ([6]; 10 mg/kg daily oral): 1844 ± 814 /cu. mm
neutrophil recovery in 5-FU treated mice when given orally (in words) ([6]; oral): active in accelerating neutrophil recovery

pimelautide
formation of CSF (in words) [7]: appear to induce the formation of CSF
bone marrow restoration after myelosuppression (in words) [8]: can aid in bone marrow restoration

KL: hemopoietic growth factor c-kit ligand (KL)
Fold Increase in CFU [9]: 66 fold

muroctasin
formation of CSF (in words) [7]: appear to induce the formation of CSF
bone marrow restoration after myelosuppression (in words) [8]: can aid in bone marrow restoration

— US5312831A, “Urethanes and ureas that induce cytokine production” (American Cyanamid Company, priority 1993, dated 1994)
